# Data as given in patent US20070179122A1, “Beta-Aminoacid-Derivatives As Factor Xa Inhibitors” (Sanofi-Aventis Deutschland GmbH, priority 2004, published 2007).
# Target: T1, human factor Xa (Homo sapiens, UniProt P00742)
# T1 construct: 25 μl human factor Xa (Enzyme Research Laboratories, Inc; South Bend, Ind.); purchased Enzyme Research Laboratories, Inc; South Bend, Ind
# Test: Factor Xa Assay (chromogenic, purified enzyme)
# Type: biochemical
# Conditions: inhibition constant for inhibition of factor Xa; chromogenic substrate S-2765 140 μM, enzyme 0.5 nM, 25° C., pH 7.8; Ki=IC50/{1+(substrate concentration/Km)}; read-out: Ki(FXa)
# Excerpt: The ability of the compounds of the formula I to inhibit factor Xa or factor VIIa or other enzymes like thrombin, plasmin, or trypsin can be assessed by determining the concentration of the compound of the formula I that inhibits enzyme activity by 50%, i. e. the IC50 value, which was related to the inhibition constant Ki. Purified enzymes were used in chromogenic assays. […] For calculating the inhibition constant Ki, the IC50 value was corrected for competition with substrate using the formula Ki=IC50/{1+(substrate concentration/Km)} wherein Km is the Michaelis-Menten constant (Chen and Prusoff, Biochem. Pharmacol. 22 (1973) 3099-3108; I. H. Segal, Enzyme Kinetics, 1975, John Wiley & Sons, New York, 100-125; which were incorporated herein by reference). a) Factor Xa Assay
# The IC50 was determined by combining in appropriate wells of a Costar half-area microtiter plate 25 μl human factor Xa (Enzyme Research Laboratories, Inc.; South Bend, Ind.) in TBS-PEG; 40 μl 10% (v/v) DMSO in TBS-PEG (uninhibited control) or various concentrations of the compound to be tested diluted in 10% (v/v) DMSO in TBS-PEG; and substrate S-2765 (N(α)-benzyloxycarbonyl-D-Arg-Gly-L-Arg-p-nitroanilide; Kabi Pharmacia, Inc.; Franklin, Ohio) in TBS-PEG.
# The assay was performed by pre-incubating the compound of formula I plus enzyme for 10 min. Then the assay was initiated by adding substrate to obtain a final volume of 100 μl. The initial velocity of chromogenic substrate hydrolysis was measured by the change in absorbance at 405 nm using a Bio-tek Instruments kinetic plate reader (Ceres UV900HDi) at 25° C. during the linear portion of the time course (usually 1.5 min after addition of substrate). The enzyme concentration was 0.5 nM and substrate concentration was 140 μM.
# T1 sequence (P00742 235-488 limits assumed): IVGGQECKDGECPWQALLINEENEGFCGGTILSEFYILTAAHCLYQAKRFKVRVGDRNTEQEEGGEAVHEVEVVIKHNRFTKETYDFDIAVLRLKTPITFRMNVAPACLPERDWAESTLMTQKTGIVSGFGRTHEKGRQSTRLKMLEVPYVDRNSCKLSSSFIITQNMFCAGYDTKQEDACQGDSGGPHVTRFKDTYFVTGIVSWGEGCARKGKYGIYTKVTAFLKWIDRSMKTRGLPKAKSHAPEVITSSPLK
# T1 sequence (P00742 41-179 partner limits assumed): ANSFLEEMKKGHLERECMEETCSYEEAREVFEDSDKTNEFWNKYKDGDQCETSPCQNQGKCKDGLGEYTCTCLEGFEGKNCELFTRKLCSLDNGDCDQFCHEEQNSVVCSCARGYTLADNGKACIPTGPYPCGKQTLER
row,SMILES,Ki [nM]
1,"O=C(CCNC(=O)c1ccc(Cl)s1)Nc1ccc(-n2ccncc2=O)cc1 [Example 2, 5-Chloro-thiophene-2-carboxylic acid {2-[4-(2-oxo-2H-pyrazin-1-yl)-phenylcarbaminyl]-ethyl}-amide]",7
2,"O=C(CCNC(=O)c1ccc(Cl)cc1)Nc1ccc(N2CCOCC2=O)cc1 [Example 3, 4-Chloro-N-{2-[4-(3-oxo-morpholin-4-yl)-phenylcarbaminyl]-ethyl}-benzamide]",1390
3,"O=C(NCCC(=O)N1CCc2cc(-n3ccncc3=O)ccc21)c1ccc(Cl)s1 [Example 4, 5-Chloro-thiophene-2-carboxylic acid {3-oxo-3-[5-(2-oxo-2H-pyrazin-1-yl)-2,3-dihydro-indol-1-yl]-propyl}-amide]",40
4,"O=C(NCCC(=O)n1ccc2cc(-n3ccncc3=O)ccc21)c1ccc(Cl)s1 [Example 5, 5-Chloro-thiophene-2-carboxylic acid {3-oxo-3-[5-(2-oxo-2H-pyrazin-1-yl)-indol-1-yl]-propyl}-amide]",8
5,"O=C(CCNC(=O)c1ccc(Cl)s1)Nc1ccc(-n2ccncc2=O)cc1F [Example 6, 5-Chloro-thiophene-2-carboxylic acid {2-[2-fluoro-4-(2-oxo-2H-pyrazin-1-yl)-phenylcarbaminyl]-ethyl}-amide]",4
6,"O=C(NC[C@@H](NCC(F)F)C(=O)Nc1ccc(N2CCOCC2=O)c(C(F)(F)F)c1)c1ccc(Cl)s1 [Example 7, 5-Chloro-thiophene-2-carboxylic acid {(R)-2-(2,2-difluoro-ethylamino)-2-[4-(3-oxo-morpholin-4-yl)-3-trifluoromethyl-phenylcarbaminyl]-ethyl}-amide]",59
7,"O=C(CCNS(=O)(=O)c1ccc(Cl)s1)Nc1ccc(N2CCOCC2=O)cc1 [Example 8, 3-(5-Chloro-thiophene-2-sulfonylamino)-N-[4-(3-oxo-morpholin-4-yl)-phenyl]-propionamide]",375
8,"O=C(CCNC(=O)c1ccc(Cl)s1)Nc1ccc(N2CCOCS2(=O)=O)cc1 [Example 9, 5-Chloro-thiophene-2-carboxylic acid {2-[4-(3,3-dioxo-[1,3,4]oxathiazinan-4-yl)-phenylcarbaminyl]-ethyl}-amide]",30
9,"O=C(NCC(F)(F)C(=O)Nc1ccc(-n2ccncc2=O)cc1)c1ccc(Cl)s1 [Example 10, 5-Chloro-thiophene-2-carboxylic acid {2,2-difluoro-2-[4-(2-oxo-2H-pyrazin-1-yl)-phenylcarbaminyl]-ethyl}-amide]",8
10,"O=C(NCC(F)(F)C(=O)Nc1ccc(N2CCOCC2=O)cc1)c1ccc(Cl)s1 [Example 11, 5-Chloro-thiophene-2-carboxylic acid {2,2-difluoro-2-[4-(3-oxo-morpholin-4-yl)-phenylcarbaminyl]-ethyl}-amide]",18
11,"N=C(N)c1cccc(C(=O)NCCC(=O)Nc2ccc(-n3ccncc3=O)cc2)c1 [Example 12, 3-Carbamimidoyl-N-{2-[4-(2-oxo-2H-pyrazin-1-yl)-phenylcarbaminyl]-ethyl}-benzamide]",100
12,"COC(=O)c1cc(NC(=O)CCNC(=O)c2ccc(Cl)s2)ccc1N1CCOCC1=O [Example 13, 5-{3-[(5-Chloro-thiophene-2-carbonyl)-amino]-propionylamino}-2-(3-oxo-morpholin-4-yl)-benzoic acid methyl ester]",263
13,"O=C(CCNC(=O)c1ccc(Cl)s1)Nc1ccc(N2CCOCC2=O)c(C(=O)O)c1 [Example 14, 5-{3-[(5-Chloro-thiophene-2-carbonyl)-amino]-propionylamino}-2-(3-oxo-morpholin-4-yl)-benzoic acid]",30000
14,"O=C(CCNC(=O)c1ccc(Cl)s1)Nc1ccc(N2CCOCC2=O)nc1 [Example 15, 5-Chloro-thiophene-2-carboxylic acid {2-[6-(3-oxo-morpholin-4-yl)-pyridin-3-ylcarbamoyl]-ethyl}-amide]",194
15,"O=C(CCNC(=O)c1ccc(Cl)s1)Nc1ccc(N2CCOCC2=O)c(F)c1 [Example 16, 5-Chloro-thiophene-2-carboxylic acid {2-[3-fluoro-4-(3-oxo-morpholin-4-yl)-phenylcarbaminyl]-ethyl}-amide]",15
16,"COC(=O)c1cc(N2CCOCC2=O)ccc1NC(=O)CCNC(=O)c1ccc(Cl)s1 [Example 18, 2-{3-[(5-Chloro-thiophene-2-carbonyl)-amino]-propionylamino}-5-(3-oxo-morpholin-4-yl)-benzoic acid methyl ester]",3
17,"COC(=O)c1cc(-n2ccccc2=O)ccc1NC(=O)CCNC(=O)c1ccc(Cl)s1 [Example 19, 2-{3-[(5-Chloro-thiophene-2-carbonyl)-amino]-propionylamino}-5-(2-oxo-2H-pyridin-1-yl)-benzoic acid methyl ester]",2
18,"O=C(CCNC(=O)c1ccc(Cl)s1)Nc1ccc(-n2ccccc2=O)cc1C(=O)O [Example 20, 2-{3-[(5-Chloro-thiophene-2-carbonyl)-amino]-propionylamino}-5-(2-oxo-2H-pyridin-1-yl)-benzoic acid]",11
19,"O=C(CCNC(=O)c1ccc(Cl)s1)Nc1ccc(-n2ccc(=O)cc2)cc1 [Example 21, 5-Chloro-thiophene-2-carboxylic acid {2-[4-(4-oxo-4H-pyridin-1-yl)-phenylcarbaminyl]-ethyl}-amide]",260
20,"O=C(CCNC(=O)c1ccc(Cl)cc1)Nc1ccc(-n2ccc(=O)cc2)cc1 [Example 22, 4-Chloro-N-{2-[4-(4-oxo-4H-pyridin-1-yl)-phenylcarbaminyl]-ethyl}-benzamide]",4000
21,"COC(=O)CN(C(=O)CCNC(=O)c1ccc(Cl)s1)c1ccc(N2CCOCC2=O)cc1 [Example 23, {{3-[(5-Chloro-thiophene-2-carbonyl)-amino]-propionyl}-[4-(3-oxo-morpholin-4-yl)-phenyl]-amino}-acetic acid methyl ester]",212
22,"O=C(O)CN(C(=O)CCNC(=O)c1ccc(Cl)s1)c1ccc(N2CCOCC2=O)cc1 [Example 24, {{3-[(5-Chloro-thiophene-2-carbonyl)-amino]-propionyl}-[4-(3-oxo-morpholin-4-yl)-phenyl]-amino}-acetic acid]",228
23,"O=C(NCCC(=O)N(CC(F)F)c1ccc(N2CCOCC2=O)cc1)c1ccc(Cl)s1 [Example 25, 5-Chloro-thiophene-2-carboxylic acid (2-{(2,2-difluoro-ethyl)-[4-(3-oxo-morpholin-4-yl)-phenyl]-carbamoyl}-ethyl)-amide]",383
24,"O=C(N[C@H](CNC(=O)c1ccc(Cl)s1)C(=O)Nc1ccc(N2CCOCC2=O)c(C(F)(F)F)c1)OCc1ccccc1 [Example 26, {(R)-2-[(5-Chloro-thiophene-2-carbonyl)-amino]-1-[4-(3-oxo-morpholin-4-yl)-3-trifluoromethyl-phenylcarbaminyl]-ethyl}-carbamic acid benzyl ester]",12
